The text below walks through data of US20240124417A1, “COMPOUNDS USEFUL AS IMMUNOMODULATORS” (Bristol-Myers Squibb Company, priority 2019, published 2024).

The assay deals with T1, PD-1/PD-L1 (Homo sapiens, UniProt Q9NZQ7).
T1 construct: TVMV protease site linker (C); made in house; host or cells: HEK293T cells
Kind of assay: PD-1/PD-L1 Homogenous Time-Resolved Fluorescence (HTRF) binding assay. Particulars: PD-L1-His 10 nM, PD-1-Ig 20 nM. From the text: The ability of the compounds of the invention to bind to PD-L1 was investigated using a PD-1/PD-L1 Homogenous Time-Resolved Fluorescence (HTRF) binding assay.
Homogenous Time-Resolved Fluorescence (HTRF) binding assay.
The interaction of PD-1 and PD-L1 can be assessed using soluble, purified preparations of the extracellular domains of the two proteins. The PD-1 and PD-L1 protein extracellular domains were expressed as fusion proteins with detection tags, for PD-1, the tag was the Fc portion of Immunoglobulin (PD-1-Ig) and for PD-L1 it was the 6 histidine motif (PD-L1-His). All binding studies were performed in an HTRF assay buffer consisting of dPBS supplemented with 0.1% […] bovine serum albumin and 0.05% (v/v) Tween-20. For the h/PD-L1-His binding assay, inhibitors were pre-incubated with PD-L1-His (10 nM final) for 15 m in 4 μl of assay buffer, followed by addition of PD-1-Ig (20 nM final) in 1 μl of assay buffer and further incubation for 15 m. HTRF detection was achieved using europium crypate-labeled anti-Ig (1 nM final) and allophycocyanin (APC) labeled anti-His (20 nM final). Antibodies were diluted in HTRF detection buffer and 5 μl was dispensed on top of the binding reaction. […] Additional binding assays were established between the human proteins PD-1-Ig/PD-L2-His (20 & 5 nM, respectively) and CD80-His/PD-L1-Ig (100 & 10 nM, respectively). […]
Background: Time-resolved FRET reads energy transfer from a long-lived donor to a nearby acceptor.

T1 sequence (Q9NZQ7 18-239): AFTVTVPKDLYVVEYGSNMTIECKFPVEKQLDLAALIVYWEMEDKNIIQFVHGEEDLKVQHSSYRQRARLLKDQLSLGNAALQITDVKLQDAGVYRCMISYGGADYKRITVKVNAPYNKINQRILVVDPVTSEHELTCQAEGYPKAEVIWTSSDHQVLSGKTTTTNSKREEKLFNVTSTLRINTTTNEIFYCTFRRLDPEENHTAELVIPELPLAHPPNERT

For orientation: IC50 means the concentration at which inhibition is half-maximal. A low value points to higher potency. The compound `CC(=O)NC1CCN(CCCOc2cccc(-c3cccc(COc4cc(OCc5cncc(C#N)c5)c(CN(C)C(C)c5nnn[nH]5)cc4Cl)c3C)c2C)CC1` (stereo not drawn) [Example 1040, N-(1-(3-((3′-((4-(((1-(1H-Tetrazol-5-yl)ethyl)(methyl)amino)methyl)-2-chloro-5-((5-cyanopyridin-3-yl)methoxy)phenoxy)methyl)-2,2′-dimethyl-[1,1′-biphenyl]-3-yl)oxy)-propyl)piperidin-4-yl)acetamide] registered an IC50 of 2.3 nM.

In turn, `CC(=O)NC1CCN(CCCOc2cccc(-c3cccc(COc4cc(OCc5cncc(C#N)c5)c(CN5CCCC(c6nnn[nH]6)C5)cc4Cl)c3C)c2C)CC1` (stereo not drawn) [Example 1041, N-(1-(3-((3′-((4-((3-(1H-Tetrazol-5-yl)piperidin-1-yl)methyl)-2-chloro-5-((5-cyano-pyridin-3-yl)methoxy)phenoxy)methyl)-2,2′-dimethyl-[1,1′-biphenyl]-3-yl)oxy)propyl)-piperidin-4-yl)acetamide] came in with an IC50 of 0.5 nM.

`CC(=O)NC1CCN(CCCOc2cccc(-c3cccc(COc4cc(OCc5cncc(C#N)c5)c(CN5CCC(c6nnn[nH]6)C5)cc4Cl)c3C)c2C)CC1` (stereo not drawn) [Example 1042, N-(1-(3-((3′-((4-((3-(1H-Tetrazol-5-yl)pyrrolidin-1-yl)methyl)-2-chloro-5-((5-cyano-pyridin-3-yl)methoxy)phenoxy)methyl)-2,2′-dimethyl-[1,1′-biphenyl]-3-yl)oxy)propyl)-piperidin-4-yl)acetamide]: the half-maximal inhibitory concentration (IC50) was determined as 0.2 nM.

Regarding `CC(=O)NC1CCN(CCCOc2cccc(-c3cccc(COc4cc(OCc5cncc(C#N)c5)c(CNC(C)c5nnn[nH]5)cc4Cl)c3C)c2C)CC1` (stereo not drawn) [Example 1043, N-(1-(3-((3′-((4-(((1-(1H-Tetrazol-5-yl)ethyl)amino)methyl)-2-chloro-5-((5-cyanopyridin-3-yl)methoxy)phenoxy)methyl)-2,2′-dimethyl-[1,1′-biphenyl]-3-yl)oxy)propyl)piperidin-4-yl)acetamide], the IC50 was 3.1 nM.

Regarding `CC(=O)NC1CCN(CCCOc2cccc(-c3cccc(COc4cc(OCc5cncc(C#N)c5)c(CN(C)Cc5nnn[nH]5)cc4Cl)c3C)c2C)CC1` [Example 1044, N-(1-(3-((3′-((4-((((1H-Tetrazol-5-yl)methyl)(methyl)amino)methyl)-2-chloro-5-((5-cyanopyridin-3-yl)methoxy)phenoxy)methyl)-2,2′-dimethyl-[1,1′-biphenyl]-3-yl)oxy)-propyl)piperidin-4-yl)acetamide], the IC50 amounted to 0.5 nM.

In the case of `CC(=O)NC1CCN(CCCOc2cccc(-c3cccc(COc4cc(OCc5cncc(C#N)c5)c(CN5CCCCC5c5ncc[nH]5)cc4Cl)c3C)c2C)CC1` (stereo not drawn) [Example 1045, N-(1-(3-((3′-((4-((2-(1H-Imidazol-2-yl)piperidin-1-yl)methyl)-2-chloro-5-((5-cyano-pyridin-3-yl)methoxy)phenoxy)methyl)-2,2′-dimethyl-[1,1′-biphenyl]-3-yl)oxy)propyl)-piperidin-4-yl)acetamide], the concentration for half-maximal inhibition (IC50) is 3.8 nM.

In turn, `CC(=O)NC1CCN(CCCOc2cccc(-c3cccc(COc4cc(OCc5cncc(C#N)c5)c(CNCc5nnn[nH]5)cc4Cl)c3C)c2C)CC1` [Example 1046, N-(1-(3-((3′-((4-((((1H-Tetrazol-5-yl)methyl)amino)methyl)-2-chloro-5-((5-cyanopyridin-3-yl)methoxy)phenoxy)methyl)-2,2′-dimethyl-[1,1′-biphenyl]-3-yl)oxy)propyl)piperidin-4-yl)acetamide] had an IC50 of 1.9 nM.

In turn, `CC(=O)NC1CCN(CCCOc2cccc(-c3cccc(COc4cc(OCc5cncc(C#N)c5)c(CN(C)CC(C)c5nn[nH]n5)cc4Cl)c3C)c2C)CC1` (stereo not drawn) [Example 1047, N-(1-(3-((3′-((4-(((2-(2H-Tetrazol-5-yl)propyl)(methyl)amino)methyl)-2-chloro-5-((5-cyanopyridin-3-yl)methoxy)phenoxy)methyl)-2,2′-dimethyl-[1,1′-biphenyl]-3-yl)oxy)-propyl)piperidin-4-yl)acetamide] returned an IC50 of 2.4 nM.

Regarding `CC(=O)NC1CCN(CCCOc2cccc(-c3cccc(COc4cc(OCc5cncc(C#N)c5)c(CN5CCCCC5c5nnn[nH]5)cc4Cl)c3C)c2C)CC1` (stereo not drawn) [Example 1048, N-(1-(3-((3′-((4-((2-(1H-Tetrazol-5-yl)piperidin-1-yl)methyl)-2-chloro-5-((5-cyano-pyridin-3-yl)methoxy)phenoxy)methyl)-2,2′-dimethyl-[1,1′-biphenyl]-3-yl)oxy)propyl)-piperidin-4-yl)acetamide], the IC50 worked out at 0.5 nM.

As for `CC(=O)NC1CCN(CCCOc2cccc(-c3cccc(COc4cc(OCc5cncc(C#N)c5)c(CNCCc5nnnn5C)cc4Cl)c3C)c2C)CC1` [Example 1049, N-(1-(3-((3′-((2-Chloro-5-((5-cyanopyridin-3-yl)methoxy)-4-(((2-(1-methyl-1H-tetrazol-5-yl)ethyl)amino)methyl)phenoxy)methyl)-2,2′-dimethyl-[1,1′-biphenyl]-3-yl)oxy)-propyl)piperidin-4-yl)acetamide], the IC50 turned out to be 2.5 nM. This IC50 lies about 5-fold higher than the previous one.

Regarding `CC(=O)NC1CCN(CCCOc2cccc(-c3cccc(COc4cc(OCc5cncc(C#N)c5)c(CNCC(C)c5nnn[nH]5)cc4Cl)c3C)c2C)CC1` (stereo not drawn) [Example 1050, N-(1-(3-((3′-((4-(((2-(1H-Tetrazol-5-yl)propyl)amino)methyl)-2-chloro-5-((5-cyano-pyridin-3-yl)methoxy)phenoxy)methyl)-2,2′-dimethyl-[1,1′-biphenyl]-3-yl)oxy)propyl)-piperidin-4-yl)acetamide], the IC50 was determined as 0.7 nM.

As to `CC(=O)NC1CCN(CCCOc2cccc(-c3cccc(COc4cc(OCc5cncc(C#N)c5)c(CN5CCCC5c5nnn[nH]5)cc4Cl)c3C)c2C)CC1` (stereo not drawn) [Example 1051, N-(1-(3-((3′-((4-((2-(1H-Tetrazol-5-yl)pyrrolidin-1-yl)methyl)-2-chloro-5-((5-cyano-pyridin-3-yl)methoxy)phenoxy)methyl)-2,2′-dimethyl-[1,1′-biphenyl]-3-yl)oxy)propyl)-piperidin-4-yl)acetamide], the IC50 stood at 2.1 nM.

`CC(=O)NC1CCN(CCCOc2cccc(-c3cccc(COc4cc(OCc5cncc(C#N)c5)c(CN5CCC(c6cnn(C)c6)C5)cc4Cl)c3C)c2C)CC1` (stereo not drawn) [Example 1052, N-(1-(3-((3′-((2-Chloro-5-((5-cyanopyridin-3-yl)methoxy)-4-((3-(1-methyl-1H-pyrazol-4-yl)pyrrolidin-1-yl)methyl)phenoxy)methyl)-2,2′-dimethyl-[1,1′-biphenyl]-3-yl)oxy)-propyl)piperidin-4-yl)acetamide] showed a 50% inhibitory concentration (IC50) of 3.4 nM.

Consider `CC(=O)NC1CCN(CCCOc2cccc(-c3cccc(COc4cc(OCc5cncc(C#N)c5)c(CN5CCCCC5c5cc[nH]n5)cc4Cl)c3C)c2C)CC1` (stereo not drawn) [Example 1053, N-(1-(3-((3′-((4-((2-(1H-Pyrazol-3-yl)piperidin-1-yl)methyl)-2-chloro-5-((5-cyano-pyridin-3-yl)methoxy)phenoxy)methyl)-2,2′-dimethyl-[1,1′-biphenyl]-3-yl)oxy)propyl)-piperidin-4-yl)acetamide], for which the half-inhibitory concentration (IC50) amounted to 7.6 nM.

Compound `CC(=O)NC1CCN(CCCOc2cccc(-c3cccc(COc4cc(OCc5cncc(C#N)c5)c(CN5CCCCC5c5cnn(C)c5)cc4Cl)c3C)c2C)CC1` (stereo not drawn) [Example 1054, N-(1-(3-((3′-((2-Chloro-5-((5-cyanopyridin-3-yl)methoxy)-4-((2-(1-methyl-1H-pyrazol-4-yl)piperidin-1-yl)methyl)phenoxy)methyl)-2,2′-dimethyl-[1,1′-biphenyl]-3-yl)oxy)-propyl)piperidin-4-yl)acetamide] displayed an IC50 of 3 nM.

`CC(=O)NC1CCN(CCCOc2cccc(-c3cccc(COc4cc(OCc5cncc(C#N)c5)c(CN5CCCCC5c5nnn[nH]5)cc4Cl)c3C)c2Cl)CC1` (stereo not drawn) [Example 1055, N-(1-(3-((3′-((4-((2-(1H-Tetrazol-5-yl)piperidin-1-yl)methyl)-2-chloro-5-((5-cyano-pyridin-3-yl)methoxy)phenoxy)methyl)-2-chloro-2′-methyl-[1,1′-biphenyl]-3-yl)oxy)-propyl)-piperidin-4-yl)acetamide] registered an IC50 of 1.2 nM. This IC50 lies about 2.5-fold lower than the previous one.

`CC(=O)NC1CCN(CCCOc2cccc(-c3cccc(COc4cc(OCc5cncc(C#N)c5)c(CNc5nnn[nH]5)cc4Cl)c3C)c2Cl)CC1` [Example 1056, N-(1-(3-((3′-((4-(((1H-Tetrazol-5-yl)amino)methyl)-2-chloro-5-((5-cyanopyridin-3-yl)-methoxy)phenoxy)methyl)-2-chloro-2′-methyl-[1,1′-biphenyl]-3-yl)oxy)propyl)piperidin-4-yl)acetamide] showed an IC50 of 1.8 nM.

For `CC(=O)NC1CCN(CCCOc2cccc(-c3cccc(COc4cc(OCc5cncc(C#N)c5)c(CNCc5nnn[nH]5)cc4Cl)c3C)c2Cl)CC1` [Example 1057, N-(1-(3-((3′-((4-((((1H-Tetrazol-5-yl)methyl)amino)methyl)-2-chloro-5-((5-cyano-pyridin-3-yl)methoxy)phenoxy)methyl)-2-chloro-2′-methyl-[1,1′-biphenyl]-3-yl)oxy)-propyl)piperidin-4-yl)acetamide], the IC50 amounted to 0.7 nM.
